Assay in all cases: pIC50, kinobeads binding competition
One experiment concerns the target FGFR1 (UniProt P11362). In a few lines: (§1)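 Jurkat cells were exposed alive to nine compound concentrations (top 30 μM, 1:4 steps) or vehicle for 60 min at 37 °C and then lysed. In a second format, nine concentrations (top 30 μM, 1:5 steps) were incubated for 60 min at 4 °C with Jurkat lysate or with a 1:1:1:1 lysate mix of HEK293, K-562, HepG2 and placenta. Proteins captured on Kinobeads were digested and quantified by TMT10 LC-MS/MS. pIC50 values were derived from logistic dose-response fits (R drc package) of fold changes relative to vehicle, in biological duplicates.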

The next experiment has as its target HIPK3 (UniProt Q9H422). In a few lines:
as §1

The target in the next experiment is PIM1 (UniProt P11309). To be noted: cell material: Lysate mix. Summed up: as §1
The target of the next experiment is PKN3 (UniProt Q6P5Z2). To be noted: cell material: Lysate mix. In a few lines:
as §1

Another experiment concerns the target T1, TAOK1 (UniProt Q7L7X3).
T1 sequence (whole entry): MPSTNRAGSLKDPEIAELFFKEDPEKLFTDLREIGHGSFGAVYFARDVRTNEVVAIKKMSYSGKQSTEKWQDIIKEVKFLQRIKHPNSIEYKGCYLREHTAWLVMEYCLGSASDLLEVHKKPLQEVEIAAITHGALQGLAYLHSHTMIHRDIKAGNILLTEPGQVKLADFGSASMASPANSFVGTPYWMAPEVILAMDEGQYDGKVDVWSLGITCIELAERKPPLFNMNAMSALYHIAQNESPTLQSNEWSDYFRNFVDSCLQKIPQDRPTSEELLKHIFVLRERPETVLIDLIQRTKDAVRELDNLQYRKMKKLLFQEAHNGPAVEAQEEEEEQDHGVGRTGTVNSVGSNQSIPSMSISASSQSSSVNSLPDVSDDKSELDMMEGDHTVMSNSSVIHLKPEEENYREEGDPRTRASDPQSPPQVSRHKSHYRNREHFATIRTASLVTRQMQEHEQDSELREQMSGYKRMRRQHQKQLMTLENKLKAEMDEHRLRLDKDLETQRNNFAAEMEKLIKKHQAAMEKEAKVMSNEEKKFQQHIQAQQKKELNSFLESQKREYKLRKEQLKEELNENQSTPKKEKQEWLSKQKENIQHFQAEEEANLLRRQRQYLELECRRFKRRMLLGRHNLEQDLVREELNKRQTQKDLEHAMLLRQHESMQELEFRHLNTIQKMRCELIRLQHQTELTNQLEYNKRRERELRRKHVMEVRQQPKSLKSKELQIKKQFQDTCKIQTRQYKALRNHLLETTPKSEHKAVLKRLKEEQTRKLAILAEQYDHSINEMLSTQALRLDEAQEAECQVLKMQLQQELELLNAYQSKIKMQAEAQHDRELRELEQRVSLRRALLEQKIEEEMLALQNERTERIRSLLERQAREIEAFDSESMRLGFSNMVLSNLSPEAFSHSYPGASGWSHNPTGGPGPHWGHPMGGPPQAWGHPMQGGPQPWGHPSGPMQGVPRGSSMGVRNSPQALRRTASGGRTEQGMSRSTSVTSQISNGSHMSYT
In a few lines: as §1

Another experiment has as its target T2, UniProt O94768.
T2 sequence (whole entry): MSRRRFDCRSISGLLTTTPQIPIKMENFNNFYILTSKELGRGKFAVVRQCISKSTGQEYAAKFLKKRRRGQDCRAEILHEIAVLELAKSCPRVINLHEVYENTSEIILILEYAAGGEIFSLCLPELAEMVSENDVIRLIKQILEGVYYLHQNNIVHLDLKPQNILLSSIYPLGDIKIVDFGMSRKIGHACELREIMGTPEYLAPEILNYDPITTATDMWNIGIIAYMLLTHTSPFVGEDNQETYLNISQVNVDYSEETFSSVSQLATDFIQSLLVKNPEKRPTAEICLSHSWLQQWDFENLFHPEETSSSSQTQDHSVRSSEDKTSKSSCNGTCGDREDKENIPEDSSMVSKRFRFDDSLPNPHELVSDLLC
In a few lines:
as §1

Another experiment has as its target UniProt P09619. Particulars: cell material: Lysate mix. Summed up: as §1
In the next experiment the target is UniProt P35968. To be noted: cell material: Lysate mix. Summed up: as §1
In the next experiment the target is T3, UniProt P51955.
T3 sequence (whole entry): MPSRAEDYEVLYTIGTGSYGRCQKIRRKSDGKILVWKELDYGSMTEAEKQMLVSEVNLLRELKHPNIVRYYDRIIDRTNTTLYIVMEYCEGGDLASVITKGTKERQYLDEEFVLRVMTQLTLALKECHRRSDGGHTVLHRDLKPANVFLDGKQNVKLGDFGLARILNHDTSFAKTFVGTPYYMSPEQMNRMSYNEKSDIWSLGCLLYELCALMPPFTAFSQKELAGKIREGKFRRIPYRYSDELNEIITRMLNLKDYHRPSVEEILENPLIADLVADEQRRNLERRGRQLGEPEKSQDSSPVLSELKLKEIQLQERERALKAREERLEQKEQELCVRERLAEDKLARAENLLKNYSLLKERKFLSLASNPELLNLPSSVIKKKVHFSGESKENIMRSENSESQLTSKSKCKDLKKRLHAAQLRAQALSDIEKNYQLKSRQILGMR
Summed up:
as §1

For another experiment, the target named is UniProt P68400. Summed up:
as §1

A further experiment has as its target UniProt Q9NSY1. Summed up:
as §1

One may read the pIC50 as the IC50 on a negative log10 scale, so that one unit is a factor of ten.

Consider `O=C(NCCNC(=O)c1cc(Nc2cc(C3CC3)[nH]n2)nc(N2CCN(Cc3ccc(S(=O)(=O)F)cc3)CC2)n1)OC1CC/C=C/CCC1` (stereo unspecified), for which the pIC50 on FGFR1 (cell material: Jurkat lysate) was less than 4.52; at FGFR1 (cell material: Lysate mix), less than 4.52; on HIPK3 (cell material: Jurkat cells), 5.22; on HIPK3 (cell material: Jurkat lysate), less than 4.52; at HIPK3 (cell material: Lysate mix), less than 4.52; at PIM1, less than 4.52. In addition, the pIC50 on PKN3 was less than 4.52; on TAOK1 (cell material: Jurkat cells), 5.96; at TAOK1 (cell material: Jurkat lysate), 5.65; on TAOK1 (cell material: Lysate mix), 6.1; on UniProt O94768 (cell material: Jurkat cells), less than 4.52; on UniProt O94768 (cell material: Jurkat lysate), less than 4.52. Besides, the negative-log IC50 (pIC50) on UniProt O94768 (cell material: Lysate mix) is less than 4.52; at UniProt P09619, less than 4.52; on UniProt P35968 it was less than 4.52; at UniProt P51955 (cell material: Jurkat cells), 6.24; on UniProt P51955 (cell material: Jurkat lysate) it was less than 4.52; at UniProt P51955 (cell material: Lysate mix), less than 4.52. For the same compound, the pIC50 on UniProt P68400 (cell material: Jurkat lysate), at UniProt P68400 (cell material: Lysate mix), on UniProt Q9NSY1 (cell material: Jurkat cells), at UniProt Q9NSY1 (cell material: Jurkat lysate) and at UniProt Q9NSY1 (cell material: Lysate mix) was less than 4.52 in each case.

As for `Cc1cc(Nc2cc(C(=O)NCCNC(=O)OC3CC/C=C/CCC3)nc(N3CCN(Cc4ccc(S(=O)(=O)F)cc4)CC3)n2)n[nH]1` (stereo unspecified), the pIC50 on FGFR1 (cell material: Lysate mix) is less than 4.52; on HIPK3 (cell material: Lysate mix), less than 4.52; on PIM1 it was less than 4.52; on PKN3 it was less than 4.52; on TAOK1 (cell material: Lysate mix), 5.87; on UniProt O94768 (cell material: Lysate mix), less than 4.52. The negative-log IC50 (pIC50) on UniProt P09619, at UniProt P35968, at UniProt P51955 (cell material: Lysate mix), at UniProt P68400 (cell material: Lysate mix) and at UniProt Q9NSY1 (cell material: Lysate mix) was less than 4.52 throughout.

For `CCNC(=O)c1cc(Nc2cc(C)[nH]n2)nc(N2CCN(Cc3ccc(S(=O)(=O)F)cc3)CC2)n1`, the pIC50 on FGFR1 (cell material: Lysate mix) was less than 4.52; at HIPK3 (cell material: Lysate mix) it was 4.62; on PIM1 it was less than 4.52; on PKN3 it was less than 4.52; on TAOK1 (cell material: Lysate mix), less than 4.52; at UniProt O94768 (cell material: Lysate mix) it was less than 4.52. Also, the pIC50 on UniProt P09619 is less than 4.52; on UniProt P35968 it was less than 4.52; on UniProt P51955 (cell material: Lysate mix) it was 4.67; at UniProt P68400 (cell material: Lysate mix) it was 5.15; on UniProt Q9NSY1 (cell material: Lysate mix), less than 4.52.

Take `C#CCNC(=O)c1cc(Nc2cc(C3CC3)[nH]n2)nc(N2CCN(Cc3ccc(S(=O)(=O)F)cc3)CC2)n1`: the pIC50 on FGFR1 (cell material: Jurkat cells) is 5.72; at FGFR1 (cell material: Jurkat lysate), less than 4.52; at FGFR1 (cell material: Lysate mix) it was 4.81; on HIPK3 (cell material: Jurkat cells) it was 5.92; at HIPK3 (cell material: Jurkat lysate), 4.89; on HIPK3 (cell material: Lysate mix) it was 5.76. For the same compound, the pIC50 is less than 4.52 at PIM1; less than 4.52 on PKN3; 5.6 at TAOK1 (cell material: Jurkat cells); less than 4.52 on TAOK1 (cell material: Jurkat lysate); less than 4.52 at TAOK1 (cell material: Lysate mix); less than 4.52 on UniProt O94768 (cell material: Jurkat lysate). The pIC50 at UniProt O94768 (cell material: Lysate mix) was less than 4.52; on UniProt P09619, less than 4.52; on UniProt P35968, less than 4.52; at UniProt P51955 (cell material: Jurkat cells), 6.69; at UniProt P51955 (cell material: Jurkat lysate), 5.41; on UniProt P51955 (cell material: Lysate mix) it was 5.87. Also, the pIC50 was 5.62 on UniProt P68400 (cell material: Jurkat cells); less than 4.52 on UniProt P68400 (cell material: Jurkat lysate); 5.02 at UniProt P68400 (cell material: Lysate mix); 5.24 at UniProt Q9NSY1 (cell material: Jurkat cells); less than 4.52 at UniProt Q9NSY1 (cell material: Jurkat lysate); less than 4.52 at UniProt Q9NSY1 (cell material: Lysate mix).

Turning to `C#CCNC(=O)c1cc(Nc2cc(C)[nH]n2)nc(N2CCN(Cc3ccc(S(=O)(=O)F)cc3)CC2)n1`, the pIC50 at FGFR1 (cell material: Lysate mix) was less than 4.52; at HIPK3 (cell material: Lysate mix), 4.76; at PIM1 it was less than 4.52; on PKN3, less than 4.52; on TAOK1 (cell material: Lysate mix), less than 4.52; at UniProt O94768 (cell material: Lysate mix), less than 4.52. Besides, the pIC50 is less than 4.52 at UniProt P09619; less than 4.52 on UniProt P35968; 4.81 on UniProt P51955 (cell material: Lysate mix); 4.89 at UniProt P68400 (cell material: Lysate mix); less than 4.52 at UniProt Q9NSY1 (cell material: Lysate mix).

Regarding `CCNC(=O)c1cc(Nc2cc(C3CC3)[nH]n2)nc(N2CCN(Cc3ccc(S(=O)(=O)F)cc3)CC2)n1`, the pIC50 at FGFR1 (cell material: Lysate mix) is 5.24; on HIPK3 (cell material: Lysate mix), 5.74; at PIM1, less than 4.52; at PKN3, less than 4.52; at TAOK1 (cell material: Lysate mix), less than 4.52; on UniProt O94768 (cell material: Lysate mix), less than 4.52. In addition, the pIC50 at UniProt P09619 was less than 4.52; on UniProt P35968 it was less than 4.52; at UniProt P51955 (cell material: Lysate mix), 5.69; on UniProt P68400 (cell material: Lysate mix) it was 5.39; at UniProt Q9NSY1 (cell material: Lysate mix), less than 4.52.

The record behind these values is the supplement of paper PMC12076712.
